Experimental data published in patent publication US20180148446A1, “PYRROLO [2,3-c] PYRIDINE COMPOUND, PROCESS FOR PRODUCING THE SAME, AND USE” (Takeda Pharmaceutical Company Limited, priority 2004, published 2018).

target: T1, H^+/K^+-ATPase (Sus scrofa, UniProt P19156); assay: Proton, potassium-adenosine triphosphatase (H+/K+-ATPase) inhibitory activity test; type: biochemical; settings: pig stomach mucous membrane microsome fraction; pH 6.5, 37° C.; malachite green colorimetry at 610 nm; read-out: IC50 (50% inhibitory concentration of proton and potassium-adenosine triphosphatase)
T1 construct: The obtained microsome fraction was used as the H^+/K^+-ATPase standard product; from tissue; host or cells: pig stomach (corpus ventriculi) mucous membrane microsome fraction
Method: Proton, Potassium-Adenosine Triphosphatase (H^+/K^+-ATPase) Inhibitory Activity Test
According to the method of Wallmark et al. [Biochem. Biophys. Acta., 728, 31 (1983)], a stomach mucous membrane microsome fraction was prepared from the stomach of a pig. First, the corpus ventriculi was isolated, washed with tap water, immersed in 3M brine, and the surface of the mucous membrane was wiped with a paper towel. The stomach mucous membrane was separated, chopped, and homogenized using polytron (Kinematica) in 0.25 M saccharose solution (pH 6.8) containing 1 mM EDTA and 10 mM tris hydrochloric acid. The obtained homogenate was centrifuged at 20,000×g for 30 min, and the supernatant was centrifuged at 100,000×g for 90 min. After suspending the precipitated part in a 0.25 M saccharose solution, layered on a 0.25 M saccharose solution containing 7.5% Ficoll, and centrifuged at 100,000×g for 5 hr. The fraction of the interface between the both layers was collected and washed by centrifugation with a 0.25 M saccharose solution.
The obtained microsome fraction was used as the H^+/K^+-ATPase standard product.
A test compound (5 μL) dissolved in a 10% aqueous dimethyl sulfoxide solution was added to 40 μL of a 50 mM Hepes-tris buffer (5 mM magnesium chloride, 10 mM potassium chloride, 10 μM valinomycin, pH=6.5) containing 2.5 μg/mL (based on the protein concentration) of an enzyme standard product, and the mixture was incubated at 37° C. for 30 min. The enzyme reaction was started by the addition of 5 μL of a 2 mM adenosine triphosphate tris salt solution (50 mM Hepes-tris buffer (5 mM magnesium chloride, pH 6.5)). The enzyme reaction was carried out at 37° C. for 20 min, and quenched by adding 15 μL of malachite green solution (a mixture of 0.12% malachite green sulfuric acid (5N) solution, 7.5% ammonium molybdate and 11% Tween 20 at a ratio of 100:25:2). The mixture was stood at room temperature for 15 min, and the resulting reaction product of inorganic phosphorus and malachite green was colorimetrically determined at a wavelength of 610 nm. The amount of inorganic phosphoric acid in a reaction solution free of potassium chloride was measured in the same manner. The H^+/K^+-ATPase activity was measured by subtracting the obtained amount from the amount of inorganic phosphoric acid in the presence of potassium chloride. The inhibitory rate (%) was determined from the control activity value and the activity value at each concentration of the test compound, and 50% inhibitory concentration (IC50) of proton and potassium-adenosine triphosphatase was determined.

T1 sequence (P19156 2-1034 limits assumed): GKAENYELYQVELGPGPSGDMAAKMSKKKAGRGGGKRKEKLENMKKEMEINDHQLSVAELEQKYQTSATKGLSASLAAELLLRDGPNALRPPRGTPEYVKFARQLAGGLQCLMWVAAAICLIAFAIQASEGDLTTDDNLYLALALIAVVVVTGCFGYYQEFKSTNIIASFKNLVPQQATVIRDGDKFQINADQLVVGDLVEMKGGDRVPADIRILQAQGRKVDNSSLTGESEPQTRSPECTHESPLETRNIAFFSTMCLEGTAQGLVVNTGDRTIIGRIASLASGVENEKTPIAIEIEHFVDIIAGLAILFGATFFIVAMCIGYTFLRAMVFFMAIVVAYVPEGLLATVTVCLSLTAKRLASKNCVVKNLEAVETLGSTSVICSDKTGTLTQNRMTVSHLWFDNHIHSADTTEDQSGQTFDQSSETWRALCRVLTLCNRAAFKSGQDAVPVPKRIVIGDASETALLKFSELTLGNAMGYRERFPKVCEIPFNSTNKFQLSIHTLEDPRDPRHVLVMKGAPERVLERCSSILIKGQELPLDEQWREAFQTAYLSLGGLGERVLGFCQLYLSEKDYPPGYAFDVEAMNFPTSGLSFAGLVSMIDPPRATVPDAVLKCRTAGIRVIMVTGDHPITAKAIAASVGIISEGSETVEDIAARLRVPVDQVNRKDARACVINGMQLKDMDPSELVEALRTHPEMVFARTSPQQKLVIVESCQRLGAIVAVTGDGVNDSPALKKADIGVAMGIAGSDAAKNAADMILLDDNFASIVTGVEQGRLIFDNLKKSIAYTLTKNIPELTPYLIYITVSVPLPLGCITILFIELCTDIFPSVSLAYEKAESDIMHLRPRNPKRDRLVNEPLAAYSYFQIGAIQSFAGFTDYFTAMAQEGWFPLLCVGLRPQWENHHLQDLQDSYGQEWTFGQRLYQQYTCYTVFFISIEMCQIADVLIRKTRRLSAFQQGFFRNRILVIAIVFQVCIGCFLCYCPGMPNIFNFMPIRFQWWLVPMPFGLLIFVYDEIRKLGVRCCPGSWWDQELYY
T1 sequence (P18434 whole entry partner): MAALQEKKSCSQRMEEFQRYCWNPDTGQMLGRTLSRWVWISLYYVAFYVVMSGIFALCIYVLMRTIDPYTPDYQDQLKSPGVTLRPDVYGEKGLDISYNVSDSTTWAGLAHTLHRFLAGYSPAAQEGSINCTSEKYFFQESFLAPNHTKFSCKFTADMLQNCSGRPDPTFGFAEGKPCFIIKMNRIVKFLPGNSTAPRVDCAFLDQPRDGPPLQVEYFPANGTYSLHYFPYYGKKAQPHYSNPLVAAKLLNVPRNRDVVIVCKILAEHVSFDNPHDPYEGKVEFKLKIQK

SMILES | IC50
CCCn1c(C)cc2ccnc(NCc3ccccc3)c21 [Example 2, N-benzyl-2-methyl-1-propyl-1H-pyrrolo[2,3-c]pyridine-7-amine] | 980 nM
Cc1cc2ccnc(NCc3ccccc3)c2n1CC1CC1 [Example 5, N-benzyl-1-(cyclopropylmethyl)-2-methyl-1H-pyrrolo[2,3-c]pyridine-7-amine] | 1200 nM
Cc1[nH]c2c(NCc3ccccc3)nccc2c1C [Example 12, N-benzyl-2,3-dimethyl-1H-pyrrolo[2,3-c]pyridine-7-amine] | 27 nM
Cc1[nH]c2c(NC(=O)c3ccccc3)nccc2c1C [Example 74, N-[7-(2,3-dimethyl-1H-pyrrolo[2,3-c]pyridyl)]benzamide] | 1800 nM

The next compounds have a lower IC50 than those just listed; values first:

IC50 | SMILES
24 nM | CCCn1c(C)c(C)c2ccnc(NCc3ccc(F)cc3C)c21 [Example 26, N-(4-fluoro-2-methylbenzyl)-2,3-dimethyl-1-propyl-1H-pyrrolo[2,3-c]pyridine-7-amine]
14 nM | Cc1cccc(C)c1CNc1nccc2c(C)c(C)[nH]c12 [Example 14, N-(2,6-dimethylbenzyl)-2,3-dimethyl-1H-pyrrolo[2,3-c]pyridine-7-amine]
9.8 nM | Cc1[nH]c2c(NC3CCc4ccccc43)nccc2c1C (centres unmarked) [Example 16, N-(2,3-dihydro-1H-inden-1-yl)-2,3-dimethyl-1H-pyrrolo[2,3-c]pyridine-7-amine]
3.2 nM | Cc1cc(F)ccc1CNc1nccc2c(CO)c(C)n(CC(C)C)c12 [Example 65, {7-[(4-fluoro-2-methylbenzyl)amino]-1-isobutyl-2-methyl-1H-pyrrolo[2,3-c]pyridin-3-yl}methanol]
